Reference: PubChem BioAssay (NCI)
Where “and” joins values, the source holds several entries; their conditions need not be identical. Equal entries are not always repeated.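 Where inhibition never reached the appropriate level, the endpoint shown equals the highest concentration tested. Otherwise, values were interpolated linearly from a five-concentration, 48-hour dose response in 96-well plates. The concentration for 50% growth inhibition is given as GI50. TGI: concentration producing complete growth inhibition.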

What was measured:
Test in all cases: NCI-60 cell line screen, 48 h
[1] = system: KM20L2 colon
[2] = system: UO-31 renal
[3] = system: SN12C renal
[4] = system: HCT-15 colon
[5] = system: CCRF-CEM leukemia
[6] = system: ACHN renal
[7] = system: UACC-257 melanoma
[8] = system: OVCAR-4 ovarian
[9] = system: OVCAR-8 ovarian
[10] = system: SF-539 CNS
[11] = system: SNB-75 CNS
[12] = system: CAKI-1 renal
[13] = system: NCI-H522 lung
[14] = system: XF 498 CNS
[15] = system: MOLT-4 leukemia
[16] = system: SF-295 CNS
[17] = system: K-562 leukemia
[18] = system: A498 renal
[19] = system: EKVX NSCLC
[20] = system: HT29 colon
[21] = system: TK-10 renal
[22] = system: 786-0 renal
[23] = system: COLO 205 colon
[24] = system: U251 CNS
[25] = system: MALME-3M melanoma
[26] = system: SK-OV-3 ovarian
[27] = system: IGROV1 ovarian
[28] = system: M19-MEL melanoma
[29] = system: A549 NSCLC
[30] = system: RXF 393 renal
[31] = system: SW-620 colon
[32] = system: SK-MEL-5 melanoma
[33] = system: DMS 114 small cell lung
[34] = system: LXFL 529 NSCLC
[35] = system: HCT-116 colon
[36] = system: OVCAR-5 ovarian
[37] = system: M14 melanoma
[38] = system: DMS 273 small cell lung
[39] = system: BT-549 breast
[40] = system: SNB-19 CNS
[41] = system: HOP-62 NSCLC
[42] = system: HOP-92 NSCLC
[43] = system: HS 578T breast
[44] = system: HCC-2998 colon
[45] = system: KM12 colon
[46] = system: SF-268 CNS
[47] = system: NCI-H226 lung
[48] = system: NCI-H23 lung
[49] = system: NCI-H460 lung
[50] = system: DU-145 prostate
[51] = system: SK-MEL-2 melanoma
[52] = system: UACC-62 melanoma
[53] = system: HL-60(TB) leukemia
[54] = system: OVCAR-3 ovarian
[55] = system: T-47D breast
[56] = system: MDA-N
[57] = system: MDA-MB-435
[58] = system: SK-MEL-28 melanoma
[59] = system: PC-3 prostate
[60] = system: LOX IMVI melanoma
[61] = system: SR leukemia
[62] = system: MCF7 breast
[63] = system: NCI/ADR-RES ovarian
[64] = system: RPMI-8226 leukemia
[65] = system: MDA-MB-231 breast
[66] = system: DLD-1 colon
[67] = system: SNB-78 CNS

CCCCCCCCCCNCCSSCc1ccc(Cl)cc1
TGI [1]: 3.07 µM
TGI [2]: 4.84 µM
TGI [3]: 3.86 µM
TGI [4]: 6.54 µM
TGI [5]: 4.87 µM
TGI [6]: 18.5 µM
TGI [7]: 2.31 µM
TGI [8]: 3.09 µM
TGI [9]: 3.8 µM
TGI [10]: 3.64 µM
TGI [11]: 20.6 µM
TGI [12]: 7.15 µM
TGI [13]: 3.18 µM
TGI [14]: 5.22 µM
TGI [15]: 3.08 µM
TGI [16]: 4.79 µM
TGI [17]: 5.27 µM
TGI [18]: 28.4 µM
TGI [19]: 5.14 µM
TGI [20]: 3.74 µM
TGI [21]: 4.04 µM
TGI [22]: 24.2 µM
TGI [23]: 5.95 µM
TGI [24]: 10.2 µM
TGI [25]: 7.69 µM
TGI [26]: 8.22 µM
TGI [27]: 7.62 µM
TGI [28]: 3.58 µM
TGI [29]: 3.59 µM
TGI [30]: 11.6 µM
TGI [31]: 3.02 µM
TGI [32]: 1.88 µM
TGI [33]: 3230 nM
TGI [34]: 2.9 µM
TGI [35]: 3.14 µM
TGI [36]: 3.72 µM
TGI [37]: 1.17 µM
TGI [38]: 2.99 µM

CCOC(=O)/C=C(/C(=O)OCC)n1cc(C)c(=O)n(Cc2cnnn2COCCOC(C)=O)c1=O
TGI [2]: 30.4 µM
TGI [39]: 31.7 µM
TGI [40]: > 100 µM
TGI [3]: 52.4 µM
TGI [41]: > 100 µM
TGI [4]: > 49.1 µM
TGI [42]: 8.22 µM
TGI [5]: 5.8 µM
TGI [6]: 16.5 µM
TGI [43]: 74 µM
TGI [7]: 28.6 µM
TGI [44]: 39.1 µM
TGI [8]: 47 µM
TGI [9]: 29.1 µM
TGI [45]: 56.2 µM
TGI [10]: 19.4 µM
TGI [11]: > 67.2 µM
TGI [46]: 42.5 µM
TGI [12]: 11 µM
TGI [47]: 28.7 µM
TGI [13]: 3.65 µM
TGI [15]: 18.8 µM
TGI [48]: 31.5 µM
TGI [16]: > 100 µM
TGI [17]: 24.8 µM
TGI [18]: 90 µM
TGI [49]: > 61.5 µM
TGI [19]: 29.3 µM
TGI [50]: > 52.8 µM
TGI [20]: 27.6 µM
TGI [51]: 60.3 µM
TGI [52]: 30.5 µM
TGI [21]: 12.3 µM
TGI [53]: 13.5 µM
TGI [22]: 22.5 µM
TGI [23]: 11.8 µM
TGI [24]: 57.1 µM
TGI [54]: 32.3 µM
TGI [25]: 13.3 µM
TGI [26]: > 100 µM
TGI [27]: 32.7 µM
TGI [55]: 46.7 µM
TGI [56]: 48.5 µM
TGI [57]: 38.2 µM
TGI [29]: > 84.2 µM
TGI [30]: 29.6 µM
TGI [31]: > 55.6 µM
TGI [32]: 51.5 µM
TGI [58]: 47.5 µM
TGI [59]: 37.7 µM
TGI [60]: 32 µM
TGI [61]: 39.6 µM
TGI [35]: 28.4 µM
TGI [36]: 36.9 µM
TGI [62]: 36 µM
TGI [63]: 61.3 µM
TGI [64]: 23.8 µM
TGI [37]: 31.8 µM
TGI [65]: 36.1 µM

O=C1/C(=C/c2ccc(Cl)cc2)Oc2cc(O)ccc21
TGI [2]: 47.1 µM
TGI [39]: > 100 µM
TGI [40]: 87.4 µM
TGI [3]: > 100 µM
TGI [41]: > 100 µM
TGI [4]: > 100 µM
TGI [5]: 52 µM
TGI [6]: 61.2 µM
TGI [43]: 46.6 µM
TGI [7]: 90.1 µM
TGI [44]: > 100 µM
TGI [8]: > 100 µM
TGI [9]: > 100 µM
TGI [45]: > 100 µM
TGI [10]: 61.3 µM
TGI [11]: > 100 µM
TGI [46]: > 100 µM
TGI [47]: 62.3 µM
TGI [13]: 70.7 µM
TGI [15]: 48.1 µM
TGI [48]: > 100 µM
TGI [16]: > 100 µM
TGI [17]: 38.5 µM
TGI [49]: 89.3 µM
TGI [19]: 94.3 µM
TGI [50]: > 100 µM
TGI [52]: > 100 µM
TGI [21]: 96.8 µM
TGI [53]: 34.9 µM
TGI [22]: > 100 µM
TGI [23]: > 100 µM
TGI [24]: 76.1 µM
TGI [54]: 96.1 µM
TGI [26]: 78.8 µM
TGI [27]: > 100 µM
TGI [55]: > 100 µM
TGI [56]: > 100 µM
TGI [57]: > 100 µM
TGI [29]: 91.7 µM
TGI [30]: > 100 µM
TGI [31]: > 100 µM
TGI [32]: 51.5 µM
TGI [58]: > 100 µM
TGI [59]: 89.7 µM
TGI [61]: 47.1 µM
TGI [35]: > 100 µM
TGI [62]: > 100 µM
TGI [63]: 79.3 µM
TGI [64]: > 100 µM
TGI [37]: > 100 µM
TGI [65]: > 100 µM

C/C(=N\NC(=S)N1CCN(c2ccccn2)CC1)c1ccccn1
GI50 [2]: 141 nM
TGI [2]: 6.8 µM
TGI [39]: 0.577 µM
GI50 [40]: 183 nM
TGI [40]: 15 µM
TGI [3]: 18.5 µM
GI50 [41]: 47.5 nM
TGI [41]: 12.7 µM
TGI [4]: 14.5 µM
GI50 [42]: 2.95 nM
TGI [42]: 13 µM
TGI [5]: 0.878 µM and 0.317 µM
GI50 [6]: 2.17 nM
TGI [6]: 8.52 µM
GI50 [43]: 1280 nM
TGI [43]: 27.9 µM
GI50 [44]: 252 nM
TGI [44]: 15.3 µM
GI50 [8]: 1080 nM
TGI [8]: 12.6 µM
TGI [9]: 20.4 µM
GI50 [45]: 21.9 nM
TGI [45]: 14.1 µM
GI50 [10]: 27.2 nM
TGI [10]: 8.02 µM
TGI [11]: 17.6 µM
TGI [46]: 14.2 µM
GI50 [12]: 301 nM
TGI [12]: 15.5 µM
GI50 [47]: 236 nM
TGI [47]: 7.33 µM
GI50 [13]: 179 nM
TGI [13]: 0.71 µM and 2.07 µM
GI50 [14]: 23.6 nM
TGI [15]: 2.66 µM
TGI [48]: 11.5 µM
GI50 [16]: 12.9 nM
TGI [16]: 12.4 µM
TGI [66]: 15.2 µM
TGI [17]: 0.0341 µM
GI50 [18]: 1670 nM
TGI [18]: 15 µM
GI50 [49]: 10.2 nM
TGI [49]: 12.9 µM
GI50 [19]: 0.138 nM
TGI [50]: 14.1 µM
TGI [67]: 21.5 µM
GI50 [20]: < 19.2 nM
TGI [20]: 16 µM
GI50 [51]: 231 nM
TGI [51]: 12.9 µM
GI50 [52]: < 11.4 nM
TGI [21]: 13.9 µM
GI50 [53]: 41.6 nM
TGI [53]: 0.0104 µM
GI50 [22]: 6.56 nM
TGI [22]: 13.5 µM
GI50 [24]: < 16.1 nM
TGI [24]: 12.9 µM
TGI [54]: 14.2 µM
GI50 [25]: 406 nM
TGI [25]: 12.8 µM
GI50 [26]: 198 nM
TGI [26]: 16.2 µM
TGI [27]: 15 µM
TGI [55]: 7.37 µM
TGI [56]: 13.3 µM
TGI [57]: 12.3 µM
TGI [28]: 2.94 µM
GI50 [29]: 46.4 nM
TGI [29]: 13.7 µM
TGI [30]: 13.4 µM
TGI [31]: 16.2 µM
GI50 [32]: 68.8 nM
TGI [32]: 13.5 µM
TGI [58]: 19.3 µM
TGI [33]: 335 nM and 103 nM
TGI [59]: 15.1 µM
TGI [60]: 14.4 µM
GI50 [61]: 16.7 nM
TGI [61]: 2.06 µM
TGI [34]: 14.2 µM
TGI [35]: 13.8 µM
GI50 [36]: 159 nM
TGI [36]: 13.4 µM
TGI [62]: 11.4 µM
TGI [64]: 23.6 µM
GI50 [37]: 85.2 nM
TGI [37]: 8.06 µM
TGI [38]: 15 µM
TGI [65]: 18.5 µM
